Laboratory results published in patent US12016847B2, “Methods of treating prostate cancer” (Bristol-Myers Squibb Company, priority 2021, dated 2024).

How the values were obtained:
KLK3 [1] = test: Gene expression analysis (qPCR), KLK3 in VCaP cells; type: cell-based; conditions: 48 h
Protocol: (§1) VCaP, LNCaP, 22Rv.1, DU145 and PC3 cancer cell lines were obtained from ATCC. VCaP were cultured in DMEM media supplemented with 8% FBS, LNCaP, 22Rv.1 and DU145 were cultured in RPMI1640 media supplemented with 10% FBS, and PC3 were cultured in F12K media supplemented with 10% FBS.
(§2) Cells were plated in a 6-well format and were allowed to adhere 24 h before treatment. Cells were treated for 48 h before collecting them. RNA was purified from cells using the RNeasy kit (Qiagen) according to the manufacturer's instructions. Quantitative RTPCR was performed using the TaqMan assay (Thermo Fisher Scientific) on the ABI QuantStudio 7 Flex Real-Time PCR System.

22Rv.1 cells = test: Proliferation assay (Cell Titer-Glo), 22Rv.1 cells; type: cell-based; conditions: Homo sapiens, 22Rv1, 72 h, 3 days
Protocol: as §1
(§3) Cells were plated in a 96-well format and were allowed to adhere 24 h before treatment. Drugs were titrated 1:3 from 1 μM to 0.1 nM with 9 doses in triplicate. Cell proliferation was measured on the day of treatment (Day 0) and on Day 3 using Cell Titer-Glo reagent (Promega) according to the manufacturer's instructions. Cell growth normalized to the DMSO vehicle control and to Day 0 was fitted by nonlinear regression using GraphPad Prism 7.03 (GraphPad Software, Inc.).

LNCaP cells = test: Proliferation assay (Cell Titer-Glo), LNCaP cells; type: cell-based, human; conditions: 3 days of treatment, at 1 uM, related to Day 0 and DMSO
Protocol: as §1, §3

TMPRSS2 [2] = test: Gene expression analysis (qPCR), TMPRSS2 in 22Rv.1 cells; type: cell-based; conditions: 48 h
Protocol: as §1, §2

MYC [3] = test: Gene expression analysis (qPCR), MYC in 22Rv.1 cells; type: cell-based; conditions: 48 h
Protocol: as §1, §2

MYC [4] = test: Gene expression analysis (qPCR), MYC in VCaP cells; type: cell-based; conditions: 48 h
Protocol: as §1, §2

DU145 cells = test: Proliferation assay (Cell Titer-Glo), DU145 cells; type: cell-based; conditions: 3 days
Protocol: as §1, §3

HEXIM1 [5] = test: Gene expression analysis (qPCR), HEXIM1 in VCaP cells; type: cell-based; conditions: 48 h
Protocol: as §1, §2

KLK3 [6] = test: Gene expression analysis (qPCR), KLK3 in LNCaP cells; type: cell-based, human; conditions: 48 h
Protocol: as §1, §2

HEXIM1 [7] = test: Gene expression analysis (qPCR), HEXIM1 in 22Rv.1 cells; type: cell-based; conditions: 48 h
Protocol: as §1, §2

VCaP cells = test: Proliferation assay (Cell Titer-Glo), VCaP cells; type: cell-based; conditions: 3 days
Protocol: as §1, §3

TMPRSS2 [8] = test: Gene expression analysis (qPCR), TMPRSS2 in VCaP cells; type: cell-based; conditions: 48 h
Protocol: as §1, §2

MYC [9] = test: Gene expression analysis (qPCR), MYC in LNCaP cells; type: cell-based, human; conditions: 48 h
Protocol: as §1, §2

HEXIM1 [10] = test: Gene expression analysis (qPCR), HEXIM1 in LNCaP cells; type: cell-based, human; conditions: 48 h
Protocol: as §1, §2

KLK3 [11] = test: Gene expression analysis (qPCR), KLK3 in 22Rv.1 cells; type: cell-based; conditions: 48 h
Protocol: as §1, §2

[12] = test system: Neuroendocrine prostate cancer models; test: Proliferation assay, all Neuroendocrine prostate cancer models tested (summary); type: cell-based; conditions: DU145 and PC3 models, summary statement
Protocol: as §1, §3

PC3 cells = test: Proliferation assay (Cell Titer-Glo), PC3 cells; type: cell-based; conditions: 3 days
Protocol: as §1, §3

Cc1nnn(C)c1-c1cnc2c3ccc(C(C)(C)O)cc3n([C@H](c3ccccc3)C3CCOCC3)c2c1 [Compound A, 2-[3-(1,4-dimethyl-1H-1,2,3-triazol-5-yl)-5-[(S)-(oxan-4-yl)(phenyl)methyl]-5H-pyrido[3,2-b]indol-7-yl]propan-2-ol]
downregulation of KLK3 compared to DMSO (KLK3 [1]; 4 nM): 96.9%
downregulation of KLK3 compared to DMSO (KLK3 [1]; 40 nM): 99.4%
IC50 (22Rv.1 cells): 1.7 nM
growth arrest of LNCaP cells (LNCaP cells): 100%
reduction of TMPRSS2 compared to DMSO (TMPRSS2 [2]; 4 nM): 97.0%
reduction of TMPRSS2 compared to DMSO (TMPRSS2 [2]; 40 nM): 97.8%
downregulation of MYC (MYC [3]; 4 nM): 98.5%
downregulation of MYC (MYC [3]; 40 nM): 99.3%
reduction in MYC expression (MYC [4]; 4 nM): 91.4%
MYC downregulation (MYC [4]; 40 nM): 95.7%
reduction of DU145 proliferation (DU145 cells): 61.9%
HEXIM1 upregulated compared to DMSO (HEXIM1 [5]; 4 nM): 968.0%
HEXIM1 upregulated compared to DMSO (HEXIM1 [5]; 40 nM): 1257.5%
downregulation of KLK3 (KLK3 [6]; 4 nM): 58.8%
downregulation of KLK3 (KLK3 [6]; 40 nM): 92.0%
induction of HEXIM1 (HEXIM1 [7]; 4 nM): 31%
upregulation of HEXIM1 (HEXIM1 [7]; 40 nM): 91.5%
growth arrest of VCaP proliferation (VCaP cells; at 0.1 uM, related to Day 0 and DMSO): 100%
cytotoxic effect on VCaP cells (VCaP cells; at the highest concentrations): cytotoxic effects
downregulation of TMPRSS2 (TMPRSS2 [8]; 4 nM): 32.8%
downregulation of TMPRSS2 (TMPRSS2 [8]; 40 nM): 51.9%
downregulation of MYC (MYC [9]; 4 nM): 84.1%
downregulation of MYC (MYC [9]; 40 nM): 93.6%
upregulation of HEXIM1 (HEXIM1 [10]; 4 nM): 446.8%
upregulation of HEXIM1 (HEXIM1 [10]; 40 nM): 533.3%
downregulation of KLK3 (KLK3 [11]; 4 nM): 99.9%
downregulation of KLK3 (KLK3 [11]; 40 nM): 99.8%
reduction of cell proliferation in all Neuroendocrine prostate cancer models tested [12]: ≥ 61.9%
reduction of PC3 proliferation (PC3 cells): 67%
IC50 (PC3 cells; Homo sapiens, PC-3, 72 h): 4.1 nM
